From patent US20170008888A1 (KYORIN PHARMACEUTICAL CO., LTD., priority 2014, published 2017)

Tests used:
JAK1 = biological target: T1, JAK1 (Homo sapiens, UniProt P23458); assay: Probe-based (AX9989) kinase profiling in Jurkat lysate: JAK1; assay type: binding; conditions: read-out: Kinase inhibition % at indicated screening concentration: JAK1; for inhibition at 1 µM: screening concentration 1.0 μM; for inhibition at 0.1 µM: screening concentration 0.1 μM
T1 construct: screened for activity against several kinases in Jurkat cells; endogenous in cells; host or cells: Jurkat cell lysate
In short: (§1)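 Compounds were pre-incubated for 15 min at room temperature with gel-filtered Jurkat cell lysate supplemented with 20 mM MnCl2, after which the acyl phosphate ATP probe AX9989 was added at 5 μM final. Labeled active-site peptides were enriched after tryptic digestion and measured by LC/MS, with percent inhibition taken relative to samples without compound.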

ACK = biological target: T2, ACK (Homo sapiens, UniProt Q07912); assay: Probe-based (AX9989) kinase profiling in Jurkat lysate: ACK; assay type: binding; conditions: read-out: Kinase inhibition % at indicated screening concentration: ACK; for inhibition at 1 µM: screening concentration 1.0 μM; for inhibition at 0.1 µM: screening concentration 0.1 μM
T2 construct: screened for activity against several kinases in Jurkat cells; endogenous in cells; host or cells: Jurkat cell lysate
In short: as §1

AurB or AurC = assay: Probe-based (AX9989) kinase profiling in Jurkat lysate: AurB or AurC; assay type: binding
In short: as §1

ERK5 = biological target: T3, ERK5 (Homo sapiens, UniProt Q13164); assay: Probe-based (AX9989 acyl phosphate ATP probe) kinase profiling in Jurkat lysate: ERK5; assay type: binding; conditions: for IC50: calculated from percent inhibition of AX9989 labeling and the screening concentration, Jurkat lysate; for inhibition at 1 µM: screening concentration 1.0 μM; for inhibition at 1 µM / inhibition at 0.1 µM: read-out: Kinase inhibition % at indicated screening concentration: ERK5; for inhibition at 0.1 µM: screening concentration 0.1 μM
T3 construct: screened for activity against several kinases in Jurkat cells; endogenous in cells; host or cells: Jurkat cell lysate
In short: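 Gel-filtered Jurkat lysate (5 mg/ml, 20 mM MnCl2) preincubated 15 min at room temperature with compound, then labelled with 5 μM AX9989 acyl phosphate ATP probe. Probe-labelled ERK5 active-site peptides quantified by LC/MS after trypsin digestion and streptavidin capture; IC50 calculated from percent inhibition at the screening concentration.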

human PBMCs = assay: Human PBMC TNF-α response to endotoxin (ELISA); assay type: cell-based; conditions: 0.1 μg/ml LPS 16 h, read-out: EC50 for the inhibition of the human PBMC TNF-α response to endotoxin, ave. ± S.D.
In short: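 PBMCs at 2e6 cells/ml in RPMI 1640 with 10% charcoal-dextran-treated FBS were pre-treated 1 h at 37 °C with compound (4-point 1:5 dilution from 10 μM). Stimulation with 0.1 μg/ml E. coli 0111:B4 LPS for 16 h; TNF-α measured by ELISA (A450) in 25-fold diluted supernatant.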

ABL or ARG = assay: Probe-based (AX9989) kinase profiling in Jurkat lysate: ABL or ARG; assay type: binding
In short: as §1

T2 sequence (Q07912 whole entry): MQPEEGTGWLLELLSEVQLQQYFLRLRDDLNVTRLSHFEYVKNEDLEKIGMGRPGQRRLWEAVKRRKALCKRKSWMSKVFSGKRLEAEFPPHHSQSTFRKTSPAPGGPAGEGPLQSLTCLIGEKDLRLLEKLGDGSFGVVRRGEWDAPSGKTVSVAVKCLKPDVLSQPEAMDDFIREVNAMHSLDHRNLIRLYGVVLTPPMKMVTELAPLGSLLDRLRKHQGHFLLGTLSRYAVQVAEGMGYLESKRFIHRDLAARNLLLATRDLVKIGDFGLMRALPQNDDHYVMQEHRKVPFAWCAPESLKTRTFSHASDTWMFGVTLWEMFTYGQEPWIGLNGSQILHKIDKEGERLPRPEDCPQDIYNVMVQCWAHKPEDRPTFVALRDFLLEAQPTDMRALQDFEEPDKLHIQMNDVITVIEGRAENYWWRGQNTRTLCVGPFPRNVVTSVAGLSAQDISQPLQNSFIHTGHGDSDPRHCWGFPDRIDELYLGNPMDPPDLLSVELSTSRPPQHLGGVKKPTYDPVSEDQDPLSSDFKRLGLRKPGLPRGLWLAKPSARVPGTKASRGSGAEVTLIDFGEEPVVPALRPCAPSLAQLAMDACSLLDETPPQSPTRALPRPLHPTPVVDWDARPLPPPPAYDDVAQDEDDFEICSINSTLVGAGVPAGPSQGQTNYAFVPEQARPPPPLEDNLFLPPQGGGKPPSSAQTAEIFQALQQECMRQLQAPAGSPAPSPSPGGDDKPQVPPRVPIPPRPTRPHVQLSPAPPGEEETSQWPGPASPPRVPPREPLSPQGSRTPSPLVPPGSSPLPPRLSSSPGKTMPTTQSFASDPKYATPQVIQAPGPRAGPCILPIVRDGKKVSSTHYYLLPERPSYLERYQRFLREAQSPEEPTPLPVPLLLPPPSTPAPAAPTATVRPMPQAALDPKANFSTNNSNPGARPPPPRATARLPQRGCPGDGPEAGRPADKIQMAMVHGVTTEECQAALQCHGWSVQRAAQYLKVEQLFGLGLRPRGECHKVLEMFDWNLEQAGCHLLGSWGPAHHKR
T3 sequence (Q13164 whole entry): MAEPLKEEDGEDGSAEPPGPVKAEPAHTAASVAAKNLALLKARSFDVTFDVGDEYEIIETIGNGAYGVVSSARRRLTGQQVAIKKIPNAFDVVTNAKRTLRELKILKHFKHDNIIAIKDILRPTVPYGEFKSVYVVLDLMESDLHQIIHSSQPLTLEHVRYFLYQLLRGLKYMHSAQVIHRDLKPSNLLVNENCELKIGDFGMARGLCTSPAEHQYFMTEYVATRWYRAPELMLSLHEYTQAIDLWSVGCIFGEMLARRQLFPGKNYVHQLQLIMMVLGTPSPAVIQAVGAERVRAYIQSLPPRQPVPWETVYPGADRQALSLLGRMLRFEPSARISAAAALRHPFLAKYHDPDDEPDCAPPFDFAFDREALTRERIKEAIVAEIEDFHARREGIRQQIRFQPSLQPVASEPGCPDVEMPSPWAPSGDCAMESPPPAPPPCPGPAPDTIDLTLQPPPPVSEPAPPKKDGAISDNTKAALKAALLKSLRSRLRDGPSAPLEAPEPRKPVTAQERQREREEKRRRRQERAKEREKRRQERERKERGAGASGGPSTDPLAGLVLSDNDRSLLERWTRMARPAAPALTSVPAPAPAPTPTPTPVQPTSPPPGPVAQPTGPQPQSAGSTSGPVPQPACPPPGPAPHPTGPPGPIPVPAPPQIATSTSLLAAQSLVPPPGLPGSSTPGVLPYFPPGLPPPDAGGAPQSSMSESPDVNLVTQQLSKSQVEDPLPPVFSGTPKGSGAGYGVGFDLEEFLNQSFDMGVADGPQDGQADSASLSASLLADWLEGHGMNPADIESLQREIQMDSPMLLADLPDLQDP
T1 sequence (P23458 whole entry): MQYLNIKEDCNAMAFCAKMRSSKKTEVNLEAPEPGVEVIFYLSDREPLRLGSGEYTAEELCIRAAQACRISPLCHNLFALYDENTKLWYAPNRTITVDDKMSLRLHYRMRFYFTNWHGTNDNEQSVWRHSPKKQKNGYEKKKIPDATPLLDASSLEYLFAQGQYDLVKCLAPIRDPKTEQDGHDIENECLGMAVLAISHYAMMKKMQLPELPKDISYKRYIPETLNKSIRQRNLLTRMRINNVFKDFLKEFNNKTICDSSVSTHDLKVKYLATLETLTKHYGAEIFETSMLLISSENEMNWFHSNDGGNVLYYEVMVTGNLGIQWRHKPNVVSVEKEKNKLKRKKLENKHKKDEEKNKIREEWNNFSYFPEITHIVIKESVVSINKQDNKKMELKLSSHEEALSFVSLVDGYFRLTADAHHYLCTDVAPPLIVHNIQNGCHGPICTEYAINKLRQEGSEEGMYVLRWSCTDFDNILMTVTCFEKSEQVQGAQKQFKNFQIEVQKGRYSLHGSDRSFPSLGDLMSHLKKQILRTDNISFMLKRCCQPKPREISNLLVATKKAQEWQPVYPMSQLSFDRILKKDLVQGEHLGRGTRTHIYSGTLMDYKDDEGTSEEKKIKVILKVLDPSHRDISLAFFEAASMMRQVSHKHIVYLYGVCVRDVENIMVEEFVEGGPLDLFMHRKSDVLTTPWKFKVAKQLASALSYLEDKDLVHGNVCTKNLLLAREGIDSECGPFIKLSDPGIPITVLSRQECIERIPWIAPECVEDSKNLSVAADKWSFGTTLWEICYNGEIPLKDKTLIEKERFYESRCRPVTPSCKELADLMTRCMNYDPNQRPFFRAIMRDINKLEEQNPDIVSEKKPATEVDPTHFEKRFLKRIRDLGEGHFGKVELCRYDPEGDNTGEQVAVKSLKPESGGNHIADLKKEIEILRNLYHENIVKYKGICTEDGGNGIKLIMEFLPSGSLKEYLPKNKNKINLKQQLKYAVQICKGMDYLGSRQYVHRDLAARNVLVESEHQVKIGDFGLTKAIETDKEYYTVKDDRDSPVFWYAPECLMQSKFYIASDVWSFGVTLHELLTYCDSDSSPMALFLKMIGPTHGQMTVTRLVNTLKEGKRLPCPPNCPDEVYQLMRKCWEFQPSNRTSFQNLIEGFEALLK

Compound	inhibition at 1 µM (JAK1) [%]	inhibition at 1 µM (ACK) [%]	Kinase inhibition % at indicated screening concentration: AurB or AurC (AurB or AurC; screening concentration 1.0 μM)	IC50 (ERK5) [nM]	inhibition at 1 µM (ERK5) [%]	EC50 (human PBMCs) [nM]	Kinase inhibition % at indicated screening concentration: ABL or ARG (ABL or ARG; screening concentration 1.0 μM)	inhibition at 0.1 µM (JAK1) [%]	inhibition at 0.1 µM (ACK) [%]	Kinase inhibition % at indicated screening concentration: AurB or AurC (AurB or AurC; screening concentration 0.1 μM)	inhibition at 0.1 µM (ERK5) [%]	Kinase inhibition % at indicated screening concentration: ABL or ARG (ABL or ARG; screening concentration 0.1 μM)
CCOc1cc(C(=O)N2CCN(CCOCCO)CC2)ccc1Nc1cc2c(cn1)N(C)C(=O)c1ccccc1N2C [Compound 6]	≤ 35	≤ 35	E (E is ≦35%)	≤ 50	> 90	540	E (E is ≦35%)	–	–	–	–	–
CCOc1cc(C(=O)N2CCCN(C)CC2)ccc1Nc1cc2c(cn1)N(C)C(=O)c1ccccc1N2C [Compound 8]	≤ 35	≤ 35	E (E is ≦35%)	101 to 500	> 90	650	E (E is ≦35%)	–	–	–	–	–
CCOc1cc(C(=O)N2CCN(CC3CC3)CC2)ccc1Nc1cc2c(cn1)N(C)C(=O)c1ccccc1N2C [Compound 10]	–	–	–	≤ 50	–	1280	–	≤ 35	≤ 35	E (E is ≦35%)	75 to 90	E (E is ≦35%)
CCOc1cc(C(=O)N2CCC(N3CCCC3)CC2)ccc1Nc1cc2c(cn1)N(C)C(=O)c1ccccc1N2C [Compound 46, 3-(2-Ethoxy-4-(4-(pyrrolidin-1-yl)piperidine-1-carbonyl)phenylamino)-5,11-dimethyl-5H-benzo[e]pyrido[3,4-b][1,4]diazepin-10(11H)-one]	≤ 35	≤ 35	E (E is ≦35%)	≤ 50	> 90	470	E (E is ≦35%)	–	–	–	–	–
Cc1cc(CN2CC[C@@H](N3CCCC3)C2)ccc1Nc1cc2c(cn1)N(C)C(=O)c1ccccc1N2C [Compound 49]	–	–	–	≤ 50	–	1510	–	≤ 35	≤ 35	E (E is ≦35%)	> 90	E (E is ≦35%)
CCOc1cc(C(N)=O)ccc1Nc1cc2c(cn1)N(C)C(=O)c1ccccc1N2C [Compound 51]	–	–	–	101 to 500	–	2040	–	≤ 35	≤ 35	E (E is ≦35%)	35 to 50	E (E is ≦35%)
CCOc1cc(C(=O)N2CCC(O)CC2)ccc1Nc1cc2c(cn1)N(C)C(=O)c1ccccc1N2C [Compound 52]	≤ 35	≤ 35	E (E is ≦35%)	50 to 100	> 90	820	E (E is ≦35%)	–	–	–	–	–
CN1C(=O)c2occc2N(C)c2cc(N[C@H]3CC[C@H](N)CC3)ncc21 [Compound 53]	≤ 35	≤ 35	E (E is ≦35%)	101 to 500	75 to 90	4130	E (E is ≦35%)	–	–	–	–	–
CCOc1cc(C(=O)NCCCN(CC)CC)ccc1Nc1cc2c(cn1)N(C)C(=O)c1ccccc1N2C [Compound 54]	≤ 35	≤ 35	E (E is ≦35%)	101 to 500	75 to 90	600	E (E is ≦35%)	–	–	–	–	–
CCOc1cc(C(=O)NCCN(C(C)C)C(C)C)ccc1Nc1cc2c(cn1)N(C)C(=O)c1ccccc1N2C [Compound 55]	–	–	–	≤ 50	–	1160 ± 450	–	≤ 35	≤ 35	E (E is ≦35%)	50 to 75	E (E is ≦35%)
CCOc1cc(C(=O)N2CC[C@@H](N3CCCCC3)C2)ccc1Nc1cc2c(cn1)N(C)C(=O)c1occc1N2C [Compound 56]	–	–	–	≤ 50	–	600 ± 190	–	≤ 35	≤ 35	E (E is ≦35%)	> 90	E (E is ≦35%)
